According to US5328921A, “Aryl pyridinium compounds which are useful in treating shock” (American Cyanamid Company, priority 1992, dated 1994):
Values joined by “and” are separate entries in the source; they are usually repeats but may differ in a detail not shown here. Equal entries are not always repeated. Structures can show the parent of a compound that is named as a salt.

Key:
[1] = tested on: PAF induced lethality in mice; test: PAF induced lethality in mice; assay type: in vivo; settings: 0.5 mg/kg IP 1/2 hour before lethal PAF I.V. challenge, alive after 2 hours, control (saline) 10; for responders at 0.5 mg/kg: Mus musculus, read-out: % Survival
Protocol: PAF given I.V. to mice causes an immediate hypotensive shock leading to death in 1 hour or less. Compounds are given intraperitoneally at 1/2 hour prior to the PAF challenge. Animals alive after 2 hours are counted and the activity of test compounds expressed as survival corrected for any control (saline treated) animals which survived the PAF challenge.

PAF receptor = target: T1, PAF receptor (Oryctolagus cuniculus, UniProt G1TEI7); test: In vitro PAF antagonism: inhibition of PAF induced platelet aggregation in rabbit platelet rich plasma; assay type: cell-based, rabbit (male New Zealand White); settings: rabbit PRP; for % INH (% of inhibition of PAF induced platelet aggregation): Dose 1.00E-05 M
T1 construct: centrifuged at 800 rpm for 10-15 minutes at room temperature to recover the platelet rich plasma (PRP); endogenous in cells; host or cells: rabbit platelets (platelet rich plasma from citrated blood of male New Zealand White rabbits)
Protocol: Test compounds are evaluated as PAF receptor antagonists in vitro by measuring inhibition of PAF (platelet activating factor) induced platelet aggregation. Platelet aggregation is measured by a modification of the method described in A. Wissnet, et. al., J. Med. Chem., 27 1174, 1984.
Approximately 120-240 ml of blood is collected by cardiac puncture from unanesthetized male New Zealand White rabbits (Whaley's Summit View Farms, Belvedere, N.J.) with the use of 3.2% sodium citrate anticoagulant (1 part of citrate/10 parts of blood). All syringes and pipers are plastic. The blood is gently mixed and immediately centrifuged at 800 rpm for 10-15 minutes at room temperature to recover the platelet rich plasma (PRP). Platelet poor plasma (PPP) is prepared by centrifuging PRP at 2800 rpm for 10 minutes at room temperature.
Dilutions (113000) of PRP in Isoton, diluent are made and platelet counts are determined on a Coulter Thrombocounter which is standardized with platelet reference standards (Interscience Platelet Control, Portland, Oreg.). PRP platelet counts are adJusted to approximately 400,000-500,000 platelets/11 by the addition of PPP.
L-PAF (Platelet Activating Factor) is obtained from Calbiochem. A stock solution of 1-2 E-3M is prepared in 10% ethanol in water or 100% methanol and serial working dilutions are made using saline. E-3M stock solutions of test compounds are prepared in 100% methanol and serially diluted in PBS. Sonication of samples before testing in biological screens assists in the solubility of compounds in the liquid medium. All solutions are made up in plastic tubes, stored on ice and protected from heat and light. Solutions are prepared fresh or frozen at -20° C. and used within 48 hours.
Incubation mixtures consisted of 400 11 PRP, 50 11 of saline diluent or test compound and 50 11 of PAF agohist. More specifically, 40011 of PRP is stabilized in a cuvette for 1-2 minutes at 37° C. in the aggregometer to achieve a stable baseline, then 50 11 of saline or test compound is added and incubated for 5 minutes before addition of the challenge concentration of PAF. A submaximal concentration is determined from the dose response curve for PAF for that experiment. In general, the challenge concentration is 5E-8 or 1E-7M. Aggregation is monitored for 5 minutes. Samples containing test compound or diluent are run simultaneously for comparison. Test compounds are initially evaluated at a screening concentration of 1E-SM.
The recording equipment consists of a dual channel Chronolog aggregometer connected to a dual channel 10MV full scale deflection Omniscribe chart recorder (Houston Instruments). The chart recorder is calibrated daily with the use of a suspension of Bio-Rad latex beads (S-X 12 400 mesh) which has a density slightly greater than rabbit PRP. The bead suspension is used to set the 0% light transmission mark and clear water is used to set the 100% light transmission mark. These limits defined a full scale deflection. The aggregation traces are analyzed by a digitizing method (C. Kohler and B. Zoltan, J. Pharm. Methods, 12, 113, 1984) with x, y coordinate data stored in a computer file. A suitable program computes parameters of interest such as the magnitude of aggregation.

T1 sequence (G1TEI7 1-342): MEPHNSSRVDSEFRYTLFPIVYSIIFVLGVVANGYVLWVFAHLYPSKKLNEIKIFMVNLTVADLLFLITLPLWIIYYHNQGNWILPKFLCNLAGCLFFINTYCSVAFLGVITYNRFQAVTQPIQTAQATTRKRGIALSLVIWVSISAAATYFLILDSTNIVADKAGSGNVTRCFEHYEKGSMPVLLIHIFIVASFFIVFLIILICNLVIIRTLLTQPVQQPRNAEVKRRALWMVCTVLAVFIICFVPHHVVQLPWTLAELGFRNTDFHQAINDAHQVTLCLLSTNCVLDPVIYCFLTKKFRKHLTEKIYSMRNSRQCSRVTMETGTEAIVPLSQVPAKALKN

| IC50 (PAF receptor; PAF challenge 5.00E-08 M) | Compound | responders at 0.5 mg/kg [1] | other results |
| --- | --- | --- | --- |
| – | 2-[[Acetyl[[4-(tetradecyloxy)-benzoyl]methyl]amino]methyl]-1-ethylpyridinium iodide | – | % Survival [1]: 40% |
| 2.7 µM and 3.2 µM | CCCCCCCCCCCCCCCCOc1ccc(OCC(=O)NCCc2cccc[n+]2CC)cc1 [1-Ethyl-2-[2-[[[4-(hexadecyloxy)phenoxy]acetyl]-amino]ethyl]pyridinium iodide] | – | IC50 (PAF receptor; PAF challenge 1.00E-07 M): 4.64 µM |
| 7.2 µM and 5.6 µM | CCCCCCCCCCCCCCCCOc1ccc(OCC(=O)NCc2cccc[n+]2CC)cc1 [1-Ethyl-2-[[[[4-(hexadecyloxy)phenoxy]acetyl]amino]-methyl]pyridinium iodide] | – | – |
| – | CCCCCCCCCCCCCCOc1ccc(C(=O)NCCc2cccc[n+]2C)cc1 [1-Methyl-2-[2-[[4-(tetradecyloxy)benzoyl]amino]-ethyl]pyridinium iodide] | – | IC50 (PAF receptor; PAF challenge 1.00E-08 M): 14 µM |
| 15 µM | CCCCCCCCCCCCCCOc1ccc(CC(=O)NCCc2cccc[n+]2C)cc1 [1-Methyl-2-[2-[[[4-(tetradecyloxy)phenyl]acetyl]-amino]ethyl]pyridinium iodide] | – | – |
| – | CCCCCCCCCCCCCCOc1ccc(C(=O)N(Cc2cccc[n+]2C)S(C)(=O)=O)cc1 [1-Methyl-2-[[(methylsulfonyl)[4-(tetradecyloxy)-benzoyl]amino]methyl]pyridinium salt with trifluoromethanesulfonic acid (1:1)] | 88% | – |
| – | CCCCCCCCCCCCCCOc1ccc(CN(Cc2cccc[n+]2C)S(C)(=O)=O)cc1 [1-Methyl-2-[[(methylsulfonyl)[[4-(tetradecyloxy)-phenyl]methyl]amino]methyl]pyridinium iodide] | 55% | – |
| – | CCCCCCCCCCCCCCOc1ccc(C(=O)NCc2cccc[n+]2C)cc1OCCCCCCCCCCCCCC [1-Methyl-2-[[[3,4-bis(tetradecyloxy)benzoyl]amino]-methyl]pyridinium iodide] | 0% | – |
| – | CCCCCCCCCCCCCCOc1ccc(CN(C(=O)c2ccc[n+](C)c2)c2ccccc2)cc1 [1-Methyl-3-[[phenyl[[4-(tetradecyloxy)phenyl]methyl]-amino]carbonyl]pyridinium iodide] | 69% | – |
| 60 µM | CCCCCCCCCCCCCCOc1ccc(CNC(=O)c2cc[n+](C)cc2)cc1 [1-Methyl-4-[[[[4-(tetradecyloxy)phenyl]methyl]amino]-carbonyl]pyridinium iodide] | – | – |
| 1.5 µM | CCCCCCCCCCCCCCOc1ccc(C(=O)N(Cc2cccc[n+]2C)C(=O)c2ccccc2OC)cc1 [2-[[(2-Methoxybenzoyl)[4-(tetradecyloxy)]benzoyl]-amino]methyl]-1-methylpyridinium iodide] | – | % INH (% of inhibition of PAF induced platelet aggregation) (PAF receptor; PAF challenge 5.00E-08 M): 0% |
| – | CCCCCCCOc1ccc(C(=O)N(Cc2cccc[n+]2C)C(C)=O)cc1OCCCCCCC [2-[[Acetyl[3,4-bis(heptyloxy)benzoyl]amino]methyl]-1-methylpyridinium iodide] | 45% | – |
| – | CCCCCCCCCCCCCCOc1ccc(C(=O)N(Cc2cccc[n+]2C)C(C)=O)cc1OCCCCCCCCCCCCCC [2-[[Acetyl[3,4-bis(tetradecyloxy)benzoyl]amino]-methyl]-1-methylpyridinium iodide] | 36% | – |
| 280 µM | CCCCCCCCCCCCCCCCOc1ccc(OCC(=O)N(Cc2cccc[n+]2C)C(C)=O)cc1 [2-[[Acetyl[[4-(hexadecyloxy)phenoxy]acetyl]amino]-methyl]-1-methylpyridinium iodide] | – | – |
| – | CCCCCCCCCCCCCCOc1ccc(CN(Cc2cccc[n+]2CC)C(C)=O)cc1 [2-[[Acetyl[[4-(tetradecyloxy)phenyl]methyl]amino]-methyl]-1-ethylpyridiniumiodide] | – | IC50 (PAF receptor; PAF challenge 1.00E-07 M): 13 µM |
| – | CCCCCCCCCCCCCCOc1ccc(COC(=O)N(Cc2cccc[n+]2C)C(C)=O)cc1 [2-[[Acetyl[[[4-(tetradecyloxyphenyl]methoxy]-carbonyl]amino]methyl]-1-methylpyridinium iodide] | 40% | – |
| 20 µM | CCCCCCCCCCCCCCOc1ccc(C(=O)N(Cc2ccc[n+](C)c2)C(C)=O)cc1C(C)(C)C [3-[[Acetyl[3-(1,1-dimethylethyl)-4-(tetradecyloxy)-benzoyl]amino]methyl]-1-methylpyridinium iodide] | – | – |
| 6.8 µM | CCCCCCCCCCCCCCOc1ccc(C(=O)N(Cc2ccc[n+](C)c2)C(C)=O)cc1 [3-[[Acetyl[4-(tetradecyloxy)benzoyl]amino]methyl]-1-methylpyridinium iodide] | – | – |
| – | CCCCCCCCCCCCCCOc1ccc(N(Cc2ccc[n+](C)c2)C(C)=O)cc1 [3-[[Acetyl[4-(tetradecyloxy)phenyl]amino]methyl]-1-methylpyridinium iodide] | 7% | – |
| – | CCCCCCCCCCCCCCOc1ccc(CN(Cc2ccc[n+](C)c2)C(C)=O)cc1 [3-[[Acetyl[[4-(tetradecyloxy)phenyl]methyl]amino]-methyl]-1-methylpyridinium iodide] | 38% | IC50 (PAF receptor; PAF challenge 1.00E-08 M): 14 µM |
| – | CCCCCCCCCCCCCCOc1ccc(CN(C(=O)c2ccc[n+](CCC)c2)c2ccccc2)cc1 [3-[[Phenyl[[4-(tetradecyloxy)phenyl]methyl]amino]-carbonyl]-1-propylpyridinium iodide] | 64% | – |
| 1 µM | CCCCCCCCCCCCCCOc1ccc(CN(Cc2cc[n+](C)cc2)C(C)=O)cc1 [4-[[Acetyl[[4-(tetradecyloxy)phenyl]methyl]amino]-methyl]-1-methylpyridinium iodide] | – | – |

| Compound | IC50 (PAF receptor; PAF challenge 5.00E-08 M) | responders at 0.5 mg/kg [1] | other results |
| --- | --- | --- | --- |
| CCCCCCCCCCCCCCOc1ccc(C(=O)N(Cc2cccc[n+]2C)C(C)=O)cc1C(C)(C)C [2-[[Acetyl[3-(1,1-dimethylethyl)-4-(tetradecyloxy)-benzoyl]amino]methyl]-1-methylpyridinium iodide] | 0.0215 µM | 60% | IC50 (PAF receptor; PAF challenge 1.00E-07 M): 0.0141 µM and 0.036 µM |
| CCCCCCCCCCCCCCOc1ccc(C(=O)N(Cc2cccc[n+]2CC)C(C)=O)cc1OC.[I-] [2-[[Acetyl[3-methoxy-4-(tetradecyloxy)benzoyl]amino]-methyl]-1-ethylpyridinium iodide] | 0.0703 µM and 0.24 µM | 29% | % INH (% of inhibition of PAF induced platelet aggregation) (PAF receptor; PAF challenge 5.00E-08 M): 95% |
| CCCCCCCCCCCCCCOc1ccc(C(=O)N(Cc2cccc[n+]2C)C(C)=O)cc1OC [2-[[Acetyl[3-methoxy-4-(tetradecyloxy)benzoyl]amino]-methyl]-1-methylpyridinium iodide] | 0.0636 µM | 43% | – |
| CCCCCCCCCCCCCCOc1ccc(C(=O)N(Cc2cccc[n+]2Cc2ccccc2)C(C)=O)cc1 [2-[[Acetyl[4-(tetradecyloxy)benzoyl]amino]methyl]-1-(phenylmethyl)pyridinium bromide] | 300 µM | 0% | – |
| CCCCCCCCCCCCCCOc1ccc(C(=O)N(Cc2cccc[n+]2C)C(C)=O)cc1.[I-] [2-[[Acetyl[4-(tetradecyloxy)benzoyl]amino]methyl]-1-methylpyridinium iodide] | 0.86 µM and 0.7 µM and 0.96 µM and 1.3 µM | 27% | % INH (% of inhibition of PAF induced platelet aggregation) (PAF receptor; PAF challenge 5.00E-08 M): 0% |
| CCCCCCCCCCCCCCOc1cc(C(=O)N(Cc2cccc[n+]2C)C(C)=O)ccc1OC [2-[[Acetyl[4-methoxy-3-(tetradecyloxy)benzoyl]-amino]methyl]-1-methylpyridinium iodide] | 160 µM | 21% | – |
| CCCCCCCCCCCCCCOc1ccccc1CN(Cc1cccc[n+]1C)C(C)=O [2-[[Acetyl[[2-(tetradecyloxy)phenyl]methyl]amino]-methyl]-1-methylpyridinium iodide] | 43 µM | 23% | – |
